According to patent US11167059B2, “Compositions with reactive ingredients, and wound dressings, apparatuses, and methods” (KCI Licensing, Inc., priority 2010, dated 2021):

Legend:
[1] = compatibility of suspension agents with Ca(OCl)2 (OCl− concentration by UV-Vis); assay type: physicochemical; conditions: about 13 mg Ca(OCl)2 in methylene chloride solution of agent, about one hour in the dark
Description: FIG. 6B depicts a chart illustrating the correlation of hypochlorite concentration from the UV absorbance of FIG. 6A with corresponding concentrations obtained by Iodine titration. FIG. 6C depicts a chart of OCl^− concentration in solutions with certain of the present suspension agents, including a control of only Ca(OCl)2 in solution (of methylene chloride), Ca(OCl)2 in PCL-1 solution having 0.5 g of PCL per 100 mL of methylene chloride; Ca(OCl)2 in PCL-2 solution having 1.0 g of PCL per 100 mL of methylene chloride; and Ca(OCl)2 in solution with TWEEN 80 (also known as polysorbate 80) having 0.1 g of TWEEN 80 per 10 g of methylene chloride. […] For each solution, approximately 13 mg of Ca(OCl)2 was added to each methylene chloride solution and the solution was placed in the dark for a period of about one hour. Then 5 mL of distilled water was added to each solution, and each was shaken to mix its respective ingredients. […] After settling, for each solution, one milliliter of the aqueous layer was removed and mixed with 10 mL of 0.1 N NaOH (e.g., to increase the pH to ensure all hypochlorous acid is converted to hypochlorite for complete capture of active chlorine), and evaluated with UV-Vis spectroscopy to determine the concentration of OCl (e.g., to determine whether the OCl— had degraded or been consumed by the polymer).

[2] = system: Methicillin-resistant Staphylococcus aureus (MRSA); test: inhibition zone on MRSA monolayer in petri dish; assay type: cell-based; conditions: 30 μg control dose, 18 hours at 37° C.
Description: Experiments were performed for some of the present reactive agents (and/or resulting solutions) to investigate their antibacterial properties. In a first experiment, an even monolayer of Methicillin-resistant Staphylococcus aureus (MRSA) bacteria was spread across the surface of each of several petri dishes, and either a 30 μg control dose of Vancomycin, or an 8 mm×5 mm piece of sponge was placed on each petri dish. The pieces of sponge included: a piece of polyurethane foam coated with a silver (Ag), a piece of dry silicone foam, a piece of silicone foam impregnated with a Polyhexanide solution, a piece of silicone foam deposited with Ca(ClO)2 salt, and a piece of silicone foam deposited with NaClO salt. After placement of the pieces of foam, saline was dropped onto the foams deposited with Ca(ClO)2 and NaClO salts, respectively, Each petri dish was incubated for eighteen (18) hours at 37° C., and the clear area in which the bacteria had been killed (inhibition zone) was measured. […] In a second, similar experiment, the monolayer of bacteria was E. Coli instead of MRSA, and the remainder of the second experiment was substantially the same as the first. The results of the second experiment were also similar. […] From these preliminary experiments, the inventors believe the present reactive agents and the resulting solutions to have effective antimicrobial properties. […]

| Compound | compatibility of suspension agent with Ca(OCl)2 [1] | inhibition zone [2] |
| --- | --- | --- |
| polysorbate 80 [TWEEN 80] | compatible with Ca(OCl)2 |  |
| CN[C@H](CC(C)C)C(=O)N[C@H]1C(=O)N[C@@H](CC(N)=O)C(=O)N[C@H]2C(=O)N[C@H]3C(=O)N[C@H](C(=O)N[C@H](C(=O)O)c4cc(O)cc(O)c4-c4cc3ccc4O)[C@H](O)c3ccc(c(Cl)c3)Oc3cc2cc(c3O[C@@H]2O[C@H](CO)[C@@H](O)[C@H](O)[C@H]2O[C@H]2C[C@](C)(N)[C@H](O)[C@H](C)O2)Oc2ccc(cc2Cl)[C@H]1O [Vancomycin] |  | 200 mm^2 |
